According to article PMC6268027, “Acetylcholinesterase-Inhibiting Activity of Salicylanilide N-Alkylcarbamates and Their Molecular Docking” (Molecules, 2012):

Legend:
[1] = Lipophilicity determination by RP-HPLC (capacity factor k / log k); assay type: physicochemical; settings: Symmetry C18, MeOH 70% / H2O 30%, column 45 °C
Text: A Waters Alliance 2695 XE HPLC separation module and a Waters Photodiode Array Detector 2996 (Waters Corp., Milford, MA, USA) were used. A Symmetry® C18 5 μm, 4.6 × 250 mm chromatographic column, Part No. WAT054275 (Waters Corp., Milford, MA, USA) was used. The HPLC separation process was monitored by Empower™ 2 Chromatography Data Software, Waters 2009 (Waters Corp., Milford, MA, USA). A mixture of MeOH p.a. (70%) and H2O-HPLC–Mili-Q Grade (30%) was used as a mobile phase. The total flow of the column was 1.0 mL/min, injection volume, 30 μL, column temperature, 45 °C and sample temperature, 10 °C. The detection wavelength of 210 nm was chosen. The KI methanolic solution was used for the dead time (tD) determination. The retention times (tR) were measured in minutes. The capacity factors k were calculated using the Empower™ 2 Chromatography Data Software according to formula k = (tR− tD)/tD, where tR is the retention time of the solute, whereas tD denotes the dead time obtained using an unretained analyte. Log k, calculated from the capacity factor k, is used as the lipophilicity index converted to log P scale.

[2] = biological target: T1, acetylcholinesterase (AChE) from electric eel (Electrophorus electricus, UniProt O42275); assay: AChE inhibition, spectrophotometric Ellman's method; assay type: biochemical, Electrophorus electricus L.; settings: for IC50: electric eel AChE, Ellman's method, mean ± SD (n = 3 experiments); for AChE inhibition, fold higher than RIV: IC50 compared with rivastigmine
T1 construct: purchased Sigma
T1 sequence (O42275 24-633): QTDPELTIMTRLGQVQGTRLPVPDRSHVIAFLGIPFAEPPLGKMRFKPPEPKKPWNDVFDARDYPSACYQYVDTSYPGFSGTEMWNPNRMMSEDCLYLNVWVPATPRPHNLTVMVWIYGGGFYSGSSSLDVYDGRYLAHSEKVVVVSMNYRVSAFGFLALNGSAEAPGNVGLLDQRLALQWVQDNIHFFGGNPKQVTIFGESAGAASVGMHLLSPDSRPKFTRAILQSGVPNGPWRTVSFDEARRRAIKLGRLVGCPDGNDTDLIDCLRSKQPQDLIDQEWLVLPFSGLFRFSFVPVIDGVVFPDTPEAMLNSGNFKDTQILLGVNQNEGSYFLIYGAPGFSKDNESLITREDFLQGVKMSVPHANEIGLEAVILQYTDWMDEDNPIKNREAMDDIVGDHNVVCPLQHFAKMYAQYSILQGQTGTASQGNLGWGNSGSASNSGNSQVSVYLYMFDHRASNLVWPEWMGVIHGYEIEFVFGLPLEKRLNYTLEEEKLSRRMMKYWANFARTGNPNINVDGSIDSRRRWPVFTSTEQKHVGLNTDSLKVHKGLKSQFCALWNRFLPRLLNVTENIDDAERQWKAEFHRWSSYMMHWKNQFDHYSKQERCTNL
Experimental: The ability of the tested compounds to inhibit acetylcholinesterase (purchased from Sigma) from electric eel (Electrophorus electricus L.) was tested. […] The IC50 values were determined by the spectrophotometric Ellman’s method.
The IC50 values were determined using the spectrophotometric Ellman’s method, which is a simple, rapid and direct method to determine the SH and -S-S- group content in proteins. This method is widely used for measuring of cholinesterase activity and effectivity of cholinesterase inhibitors. Cholinesterase activity is measured indirectly by quantifying the concentration of 5-thio-2-nitrobenzoic acid (TNB) ion formed in the reaction between the thiol reagent 5,5′-dithiobis-2-nitrobenzoic acid (DTNB) and thiocholine, a product of substrate (i.e., acetylthiocholine, ATCh) hydrolysis by cholinesterase. All tested compounds were dissolved in dioxane (concentration 0.01 M) and then diluted in demineralised water (concentration 0.001 M and 0.0001 M). The procedure of determination of IC50 is a slightly modified Ellman’s method according to Zdrazilova and described in detail in [49]. For determination of IC50 values the inhibition was determined for 25 different compound concentrations with three replicates.

`CCNC(=O)Oc1ccc(Cl)cc1C(=O)Nc1cccc(Cl)c1` [4a] showed a log k [1] of 0.7523.
With `CCCCNC(=O)Oc1ccc(Cl)cc1C(=O)Nc1cccc(Cl)c1` [4b] the log k [1] was 0.7611.
For `CCCCCNC(=O)Oc1ccc(Cl)cc1C(=O)Nc1cccc(Cl)c1` [4c], the IC50 [2] was 50.4 ± 0.48 µM and the log k [1] was 0.7732.
With `CCCCCCNC(=O)Oc1ccc(Cl)cc1C(=O)Nc1cccc(Cl)c1` [4d] the IC50 [2] was 35.1 ± 0.31 µM and the log k [1] was 0.7758.
`CCCCCCCNC(=O)Oc1ccc(Cl)cc1C(=O)Nc1cccc(Cl)c1` [4e] gave an IC50 [2] of 61.7 ± 0.5 µM and a log k [1] of 0.7772.
In the case of `CCCCCCCCNC(=O)Oc1ccc(Cl)cc1C(=O)Nc1cccc(Cl)c1` [4f], the IC50 [2] is reported as 69.9 ± 0.49 µM and the log k [1] is reported as 0.7831.
`CCCCCCCCCNC(=O)Oc1ccc(Cl)cc1C(=O)Nc1cccc(Cl)c1` [4g] showed an IC50 [2] of 34.2 ± 0.26 µM and a log k [1] of 0.7837.
In the case of `CCCCCCCCCCNC(=O)Oc1ccc(Cl)cc1C(=O)Nc1cccc(Cl)c1` [4h], the IC50 [2] is reported as 52.7 ± 0.45 µM and the log k [1] is reported as 0.7873.
`CCCCCCCCCCCNC(=O)Oc1ccc(Cl)cc1C(=O)Nc1cccc(Cl)c1` [4i] showed an IC50 [2] of 56.9 ± 0.48 µM and a log k [1] of 0.7902.
Work on `CCNC(=O)Oc1ccc(Cl)cc1C(=O)Nc1ccc(Cl)cc1` [5a] yielded an IC50 [2] of 59.1 ± 0.33 µM and a log k [1] of 0.7695.
In the case of `CCCCNC(=O)Oc1ccc(Cl)cc1C(=O)Nc1ccc(Cl)cc1` [5b], the IC50 [2] is reported as 48.1 ± 0.31 µM and the log k [1] is reported as 0.7759.
`CCCCCNC(=O)Oc1ccc(Cl)cc1C(=O)Nc1ccc(Cl)cc1` [5c] showed an IC50 [2] of 41.7 ± 0.29 µM and a log k [1] of 0.7838.
In the case of `CCCCCCNC(=O)Oc1ccc(Cl)cc1C(=O)Nc1ccc(Cl)cc1` [5d], the IC50 [2] is reported as 31 ± 0.29 µM and the log k [1] is reported as 0.7859.
`CCCCCCCNC(=O)Oc1ccc(Cl)cc1C(=O)Nc1ccc(Cl)cc1` [5e] gave an IC50 [2] of 49.4 ± 0.31 µM and a log k [1] of 0.7872.
Compound `CCCCCCCCNC(=O)Oc1ccc(Cl)cc1C(=O)Nc1ccc(Cl)cc1` [5f] has an IC50 [2] of 62.5 ± 0.41 µM and a log k [1] of 0.7899.
Work on `CCCCCCCCCNC(=O)Oc1ccc(Cl)cc1C(=O)Nc1ccc(Cl)cc1` [5g] yielded an IC50 [2] of 52.2 ± 0.39 µM and a log k [1] of 0.7919.
`CCCCCCCCCCNC(=O)Oc1ccc(Cl)cc1C(=O)Nc1ccc(Cl)cc1` [5h] showed an IC50 [2] of 64.6 ± 0.41 µM and a log k [1] of 0.7942.
For `CCCCCCCCCCCNC(=O)Oc1ccc(Cl)cc1C(=O)Nc1ccc(Cl)cc1` [5i], the IC50 [2] was 44.3 ± 0.33 µM and the log k [1] was 0.7947.
`CCNC(=O)Oc1ccc(Cl)cc1C(=O)Nc1ccc(Cl)c(Cl)c1` [6a] gave an IC50 [2] of 67.3 ± 0.52 µM and a log k [1] of 1.0234.
Compound `CCCCNC(=O)Oc1ccc(Cl)cc1C(=O)Nc1ccc(Cl)c(Cl)c1` [6b] has an IC50 [2] of 64.7 ± 0.79 µM and a log k [1] of 1.0457.
With `CCCCCNC(=O)Oc1ccc(Cl)cc1C(=O)Nc1ccc(Cl)c(Cl)c1` [6c] the IC50 [2] was 56 ± 0.42 µM and the log k [1] was 1.0601.
In the case of `CCCCCCNC(=O)Oc1ccc(Cl)cc1C(=O)Nc1ccc(Cl)c(Cl)c1` [6d], the IC50 [2] is reported as 41.2 ± 0.36 µM and the log k [1] is reported as 1.0611.
Compound `CCCCCCCNC(=O)Oc1ccc(Cl)cc1C(=O)Nc1ccc(Cl)c(Cl)c1` [6e] has an IC50 [2] of 36.7 ± 0.28 µM and a log k [1] of 1.0667.
For `CCCCCCCCNC(=O)Oc1ccc(Cl)cc1C(=O)Nc1ccc(Cl)c(Cl)c1` [6f], the IC50 [2] was 32.1 ± 0.29 µM and the log k [1] was 1.0845.
For `CCCCCCCCCNC(=O)Oc1ccc(Cl)cc1C(=O)Nc1ccc(Cl)c(Cl)c1` [6g], the IC50 [2] was 43.9 ± 0.32 µM and the log k [1] was 1.0880.
For `CCCCCCCCCCNC(=O)Oc1ccc(Cl)cc1C(=O)Nc1ccc(Cl)c(Cl)c1` [6h], the “AChE inhibition, fold higher than RIV” value [2] was 23 fold, the IC50 [2] was 21.8 ± 0.2 µM and the log k [1] was 1.0894.
For `CCCCCCCCCCCNC(=O)Oc1ccc(Cl)cc1C(=O)Nc1ccc(Cl)c(Cl)c1` [6i], the “AChE inhibition, fold higher than RIV” value [2] was 16 fold, the IC50 [2] was 29.9 ± 0.22 µM and the log k [1] was 1.0903.
